Measurements as given in patent publication EP0859230A1, “Detection of analytes using electrochemistry” (priority 1997, dated 1998).

Assays:
Antigentamycin = experiment: End-point competitive microtiter plate assay with gentamycin-GOD, hydrogen peroxide peak measured in flow cell; type: binding; settings: gentamycin concentrations as low as 5 ppb; 1:10 000 dilution of gentamycin-GOD conjugate
Description: The immunological reaction step is performed in a microtiter plate. Using GOD as the enzyme label, the final microtiter well solution will contain hydrogen peroxide, the amount of which is inversely proportional to the amount of free gentamycin present in the sample under uniform conditions (competitive assay approach). This solution is pumped through the flow cell yielding a current peak, the magnitude of which is directly proportional to the amount of hydrogen peroxide present. Since no enzyme label is present in the final solution, no further hydrogen peroxide generation occurs after removal of solution from the microtiter well, thus current peaks, as opposed to current steps are observed on liquid passage through the flow cell.
Microtiter plates were coated in carbonate/bicarbonate buffer pH 9.6 for 1 hour at 37°C, then washed and blocked with 0.5% w/v gelatin in PBS buffer pH 7.4. Plates were either used directly or stored at 4°C until required.
Primary incubations with gentamycin-GOD, with or without free gentamycin, and in milk or buffer (PBS pH 7.4) were performed for 1 hour at 37°C. Gentamycin-GOD concentrations were varied between 1:1000 and 1:20 000. […]
After a given time period for substrate conversion, 150 µl of solution was pumped through the flow cell using a peristaltic pump set at a constant flow rate of 300 µl/min. Responses were measured as peak heights in nA or mA. […]

[1] = system: monoclonal anti-gentamycin antibody; experiment: Competitive flow-cell electrochemical immunoassay: free gentamycin vs gentamycin-GOD conjugate in milk; type: binding
Description: Strips of nitrocellulose were cut to the exact size of 0.4 x 0.9 cm. Strips were soaked in a solution of 5 µg/ml of monoclonal anti-gentamycin antibody in PBS buffer pH 7.4, for 1 hour at ambient temperature.
After incubation, strips were blocked in a 2% w/v BSA solution in PBS(pH 7.4) for 1 hour at ambient temperature.
Individual strips were removed from the blocking solution and mounted onto the working electrode surface, thus creating a complete sensor card.
Sensor cards were mounted into the flow cell, the strip of nitrocellulose being held in place by a rubber seal, used to prevent leakage during operation of the flow cell device.
One ml samples of milk were aliquoted, to which were added 25 µl of a: 1:1000 (A), 1:2000 (B) or 1:2500 (C) dilution of gentamycin-GOD conjugate (prepared with state of the art procedures).
Free gentamycin was then added to each milk sample, yielding solutions having gentamycin concentrations varying between 0 and 1000 ppb.
A pumping device was connected to the flow cell and the prepared milk samples were each tested with a new sensor card mounted in place.
The flow rate through the system was adjusted so that the complete milk sample passed through the system over a 3 minute time period. A 1 minute wash step was then performed with 0.1 % w/v Tween in 0.1M PBS (pH 7.4). Immediately after each wash step, 0.5M glucose in 0.1M PBS/ 0.1M KCl was passed through the flow cell and the electrochemical responses generated were recorded both as absolute values and as initial response-time velocities in nA/sec.
A 1:10 dilution of the MoAb stock solution was used to coat the nitro-cellulose strips. Gentamycin-glucose oxidase conjugate concentrations were varied from 1:4000 (exp.A) to 1:8000 (exp.B) to 1:10 000 (exp. C).

[2] = system: PBP (penicillin binding protein); experiment: Competitive inhibition assay: penicillin vs 7-ACA-GOD on PBP-coated nitrocellulose strips, amperometric detection in flow cell; settings: CV in percent in brackets; for Velocity (nA sec^1) Mean: over 200 sec; for Absolute response (µA) Mean (CV): over 500 sec
Description: Strips of nitrocellulose membrane were cut to the exact size of 0.4 x 0.9 cm. Strips were soaked in a solution of 5 mg/ml PBP (penicillin binding protein) in buffer (0.1M phosphate buffered saline (PBS), pH 7.4). The strips were left to soak for 1 hour at ambient temperature.
After incubation, strips were blocked in a 2% w/v bovine serum albumin (BSA) solution in PBS buffer (pH 7.4) for 1 hour at ambient temperature.
Individual strips were removed from the blocking solution and incubated for 5 minutes at 64°C in a 1:2000 dilution of 7-ACA-GOD stock solution in whole milk with or without free analyte (penicillin G) present.
Strips were washed for 20 seconds in PBS and placed onto the working electrode of the screen-printed sensor card.
The card was mounted into the flow cell or flowing liquid system and a 0.1M PBS solution was introduced, pumped at a constant rate through the flow cell. The working electrode was poised at a potential of +350 mV and the system allowed to achieve electrochemical equilibrium. A 0.1M glucose solution in 0.1M PBS/0.1M KCl was then pumped into the system. The flow was halted after 60 seconds. The electrochemical response of the system was monitored throughout this period.
Results can be expressed as total current increase in µA over a given time interval or can be interpreted as current increase per unit time (µA/sec).
Nitro-cellulose strips were prepared in two separate batches. […] Responses are also recorded as 'velocities' whereby the maximum current versus time slope is measured during the period of glucose flow across the working electrode surface (expressed as nA/sec). Results are also expressed as a percentage of the signal of the zero ppb penicillin positive control, that is, the zero inhibited response that therefore yields a 100% response value.

[3] = Exp. A (conjugate 1:4000), gentamycin 10 ppb in milk, duplicate
[4] = Exp. A (conjugate 1:4000), gentamycin 100 ppb in milk, duplicate
[5] = Exp. A (conjugate 1:4000), gentamycin 1000 ppb in milk, duplicate
[6] = Exp. B (conjugate 1:8000), gentamycin 10 ppb in milk, duplicate
[7] = Exp. B (conjugate 1:8000), gentamycin 100 ppb in milk, duplicate
[8] = Exp. C (conjugate 1:10 000), gentamycin 10 ppb in milk, triplicate
[9] = Exp. C (conjugate 1:10 000), gentamycin 100 ppb in milk, triplicate
[10] = Batch 1, penicillin 100 ppb in whole milk, n=2
[11] = Batch 2, penicillin 10 ppb in whole milk, n=3
[12] = Batch 2, penicillin 100 ppb in whole milk, n=2
[13] = Overall, penicillin 100 ppb in whole milk, n=4

## gentamycin
Antigentamycin
  inhibition of the positive signal: Considerable inhibition
[1]; [3]
  Absolute response (µA) Mean value: 3217 µA
  Velocity (nA sec^1) Mean value: 36.0 nA sec^1
[1]; [4]
  Absolute response (µA) Mean value: 3050 µA
  Velocity (nA sec^1) Mean value: 22.7 nA sec^1
[1]; [5]
  Absolute response (µA) Mean value: 1350 µA
  Velocity (nA sec^1) Mean value: 8.7 nA sec^1
[1]; [6]
  Absolute response (µA) Mean value: 2438 µA
  Velocity (nA sec^1) Mean value: 18.0 nA sec^1
[1]; [7]
  Absolute response (µA) Mean value: 2025 µA
  Velocity (nA sec^1) Mean value: 14.3 nA sec^1
[1]; [8]
  Absolute response (µA) Mean value: 1868 µA
  Velocity (nA sec^1) Mean value: 10.8 nA sec^1
[1]; [9]
  Absolute response (µA) Mean value: 1333 µA
  Velocity (nA sec^1) Mean value: 6.0 nA sec^1

## CC1(C)S[C@@H]2[C@H](NC(=O)Cc3ccccc3)C(=O)N2[C@H]1C(=O)O [Penicillin, penicillin G]
[2]; [10]
  Velocity (nA sec^1) Mean: 0.209 (12.6) nA sec^1
  Absolute response (µA) Mean (CV): 0.087 (35.8) µA
[2]; [11]
  Velocity (nA sec^1) Mean: 0.151 (32.0) nA sec^1
  Absolute response (µA) Mean (CV): 0.064 (17.7) µA
[2]; [12]
  Velocity (nA sec^1) Mean: 0.062 (5.7) nA sec^1
  Absolute response (µA) Mean (CV): 0.026 (21.8) µA
[2]; Overall (batch 1 + batch 2), penicillin 10 ppb in whole milk, n=3
  Absolute response (µA) Mean (CV): 0.064 (17.7) µA
[2]; Overall, penicillin 10 ppb in whole milk, n=3
  Velocity (nA sec^1) Mean: 0.151 (32.0) nA sec^1
[2]; [13]
  Velocity (nA sec^1) Mean: 0.135 (64.9) nA sec^1
  Absolute response (µA) Mean (CV): 0.057 (70.2) µA
